{"source": "patent US20210322443A1", "about": "(MAPREG, priority 2015, published 2021)", "key": {"Noradrenergic α1": {"system": "Noradrenergic α1", "test": "CNS receptor binding assay", "settings": "10 μM; [3H] prazosin; rat cerebral cortex"}, "[1]": {"system": "80 different CNS neurotransmitters receptors", "test": "Screen for in vitro affinity to 80 CNS receptors", "assay_type": "binding", "settings": "significant = inhibition higher than 50%"}, "Serotoninergic 5-HT2B": {"target": "Serotoninergic 5-HT2B (Homo sapiens, UniProt P41595)", "sequence (P41595 whole entry)": "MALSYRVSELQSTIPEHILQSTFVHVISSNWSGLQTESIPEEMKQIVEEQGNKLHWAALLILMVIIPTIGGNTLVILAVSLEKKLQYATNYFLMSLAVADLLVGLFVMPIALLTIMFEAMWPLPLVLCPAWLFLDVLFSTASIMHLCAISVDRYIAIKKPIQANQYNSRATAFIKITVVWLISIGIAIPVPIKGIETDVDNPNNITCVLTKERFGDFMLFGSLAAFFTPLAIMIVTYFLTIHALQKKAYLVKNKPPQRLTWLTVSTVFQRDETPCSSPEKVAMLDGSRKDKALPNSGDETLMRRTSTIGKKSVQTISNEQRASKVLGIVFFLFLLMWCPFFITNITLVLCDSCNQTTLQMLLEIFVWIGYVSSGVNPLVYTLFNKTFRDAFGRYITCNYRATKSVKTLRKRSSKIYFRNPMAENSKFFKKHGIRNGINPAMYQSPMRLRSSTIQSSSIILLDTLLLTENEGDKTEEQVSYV", "test": "CNS receptor binding assay", "settings": "read-out: % Inhibition of control specific binding"}, "Oppioid δ2": {"target": "Oppioid δ2 (Homo sapiens, UniProt P41143)", "sequence (P41143 whole entry)": "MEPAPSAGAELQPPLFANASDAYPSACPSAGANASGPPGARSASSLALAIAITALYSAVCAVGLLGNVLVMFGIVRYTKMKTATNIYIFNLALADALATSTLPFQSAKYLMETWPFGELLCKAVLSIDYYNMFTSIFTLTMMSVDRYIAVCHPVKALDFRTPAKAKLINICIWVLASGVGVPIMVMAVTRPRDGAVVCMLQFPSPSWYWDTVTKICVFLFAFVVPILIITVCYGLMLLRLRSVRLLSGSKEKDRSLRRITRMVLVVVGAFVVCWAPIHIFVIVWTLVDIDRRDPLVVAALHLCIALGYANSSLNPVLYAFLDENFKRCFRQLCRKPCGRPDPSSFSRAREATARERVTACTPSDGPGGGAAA", "test": "CNS receptor binding assay", "settings": "[3H] DADLE, Human recombinant (CHO cells), read-out: % Inhibition of control specific binding"}, "Oppioid κ": {"target": "Oppioid κ (Rattus norvegicus, UniProt P34975)", "sequence (P34975 whole entry)": "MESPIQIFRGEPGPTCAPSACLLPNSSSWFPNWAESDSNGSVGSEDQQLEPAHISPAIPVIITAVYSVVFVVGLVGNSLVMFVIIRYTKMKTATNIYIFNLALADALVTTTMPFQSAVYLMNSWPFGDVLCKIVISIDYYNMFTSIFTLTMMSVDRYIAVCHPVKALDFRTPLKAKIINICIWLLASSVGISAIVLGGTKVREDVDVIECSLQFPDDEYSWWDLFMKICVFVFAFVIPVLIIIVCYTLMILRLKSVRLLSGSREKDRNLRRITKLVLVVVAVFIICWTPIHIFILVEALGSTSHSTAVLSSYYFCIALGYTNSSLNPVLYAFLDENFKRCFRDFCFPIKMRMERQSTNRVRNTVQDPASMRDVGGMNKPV", "test": "CNS receptor binding assay", "settings": "[3H] U 69593, rat recombinant (CHO cells), read-out: % Inhibition of control specific binding"}, "Dopaminergic D4.4": {"target": "Dopaminergic D4.4 (Homo sapiens, UniProt P21917)", "sequence (P21917 whole entry)": "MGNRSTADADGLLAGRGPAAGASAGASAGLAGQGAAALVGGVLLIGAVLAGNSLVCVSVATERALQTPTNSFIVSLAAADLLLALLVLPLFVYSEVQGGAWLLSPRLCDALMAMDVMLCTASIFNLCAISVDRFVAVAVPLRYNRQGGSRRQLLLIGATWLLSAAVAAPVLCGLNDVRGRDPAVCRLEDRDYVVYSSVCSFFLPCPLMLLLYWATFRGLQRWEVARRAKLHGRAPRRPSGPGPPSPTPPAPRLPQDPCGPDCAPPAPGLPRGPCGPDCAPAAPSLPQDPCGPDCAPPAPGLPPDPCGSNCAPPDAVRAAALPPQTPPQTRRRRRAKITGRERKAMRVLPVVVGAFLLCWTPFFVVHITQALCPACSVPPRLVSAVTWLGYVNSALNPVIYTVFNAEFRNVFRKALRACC", "test": "CNS receptor binding assay", "settings": "read-out: % Inhibition of control specific binding"}, "Dopaminergic D2S": {"target": "Dopaminergic D2S (Homo sapiens, UniProt P14416)", "sequence (P14416 1-414 isoform P14416-2)": "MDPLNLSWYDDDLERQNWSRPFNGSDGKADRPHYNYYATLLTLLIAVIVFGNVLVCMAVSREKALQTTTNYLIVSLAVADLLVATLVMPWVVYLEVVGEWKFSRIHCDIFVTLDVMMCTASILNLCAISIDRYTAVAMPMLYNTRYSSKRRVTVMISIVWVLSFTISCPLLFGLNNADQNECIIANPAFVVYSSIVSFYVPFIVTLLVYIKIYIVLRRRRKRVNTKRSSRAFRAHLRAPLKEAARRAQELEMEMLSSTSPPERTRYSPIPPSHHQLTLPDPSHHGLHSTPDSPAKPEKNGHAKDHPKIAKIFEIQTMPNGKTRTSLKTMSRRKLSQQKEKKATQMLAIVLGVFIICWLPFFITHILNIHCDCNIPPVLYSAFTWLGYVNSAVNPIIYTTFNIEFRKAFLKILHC", "test": "CNS receptor binding assay", "settings": "read-out: % Inhibition of control specific binding"}, "Serotoninergic 5-HT7": {"target": "Serotoninergic 5-HT7 (Homo sapiens, UniProt P34969)", "sequence (P34969 whole entry)": "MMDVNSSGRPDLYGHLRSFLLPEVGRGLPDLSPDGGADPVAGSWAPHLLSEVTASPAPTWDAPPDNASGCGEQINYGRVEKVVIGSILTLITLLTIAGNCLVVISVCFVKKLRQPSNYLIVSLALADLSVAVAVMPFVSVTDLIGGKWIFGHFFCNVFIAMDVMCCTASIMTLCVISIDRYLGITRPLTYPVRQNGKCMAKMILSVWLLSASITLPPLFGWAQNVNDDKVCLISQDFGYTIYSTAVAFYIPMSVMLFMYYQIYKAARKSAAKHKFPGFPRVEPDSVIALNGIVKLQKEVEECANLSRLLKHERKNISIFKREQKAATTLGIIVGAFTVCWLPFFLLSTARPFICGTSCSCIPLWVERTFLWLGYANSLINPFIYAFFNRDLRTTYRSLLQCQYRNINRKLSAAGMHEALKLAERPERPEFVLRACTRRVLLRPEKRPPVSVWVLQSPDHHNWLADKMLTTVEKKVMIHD", "test": "CNS receptor binding assay", "settings": "read-out: % Inhibition of control specific binding"}, "Dopaminergic D5": {"target": "Dopaminergic D5 (Homo sapiens, UniProt P21918)", "sequence (P21918 whole entry)": "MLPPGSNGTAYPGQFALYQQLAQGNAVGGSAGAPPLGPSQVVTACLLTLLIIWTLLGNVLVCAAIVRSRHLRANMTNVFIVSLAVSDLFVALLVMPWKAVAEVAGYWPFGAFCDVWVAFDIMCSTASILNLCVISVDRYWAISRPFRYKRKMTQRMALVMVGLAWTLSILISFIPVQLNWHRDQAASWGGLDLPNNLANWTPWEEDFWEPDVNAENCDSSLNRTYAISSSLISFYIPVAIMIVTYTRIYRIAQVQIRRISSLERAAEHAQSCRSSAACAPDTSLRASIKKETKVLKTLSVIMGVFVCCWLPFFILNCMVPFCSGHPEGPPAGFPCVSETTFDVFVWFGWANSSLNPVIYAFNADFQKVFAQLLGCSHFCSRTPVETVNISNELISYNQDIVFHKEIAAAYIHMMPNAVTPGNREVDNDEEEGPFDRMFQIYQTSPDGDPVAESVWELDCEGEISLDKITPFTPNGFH", "test": "CNS receptor binding assay", "settings": "read-out: % Inhibition of control specific binding"}, "[2]": {"system": "alcohol self-administration", "test": "Operant alcohol self-administration in ethanol dependent and non-dependent rats", "assay_type": "in vivo, Wistar rats", "experimental": "Alcohol self-administration in ethanol dependent and non-dependent animals is a well-known and well-characterized animal model for analysis of alcoholism behaviors (Roberts et al. 1999, 2000; Rimondini et al. 2002; O'Dell et al. 2004; Richardson et al. 2008; Gilpin et al. 2009).\nAdult male Wistar rats (Charles River, Raleigh, N.C.), weighing 225-275 g at the beginning of the experiments, were housed in groups of 2-3 per cage in a temperature-controlled (22° C.) vivarium on a 12 h/12 h light/dark cycle (lights on at 8:00 PM) with ad libitum access to food and water. All behavioral tests were conducted during the dark phase of the light/dark cycle. All procedures adhered to the National Institutes of Health Guide for the Care and Use of Laboratory Animals and were approved by the Institutional Animal Care and Use Committee of The Scripps Research Institute.\nSelf-administration sessions were conducted in standard operant conditioning chambers (Med Associates, St. Albans, Vt.). Animals were first trained to self-administer 10% (w/v) ethanol and water solutions until a stable response was maintained. The rats were subjected to an overnight session in the operant chambers with access to one lever (right lever) that delivered water (FR1). Food was available ad libitum during this training. After 1 day off, the rats were subjected to a 2 h session (FR1) for 1 day and a 1 h session (FR1) the next day, with one lever delivering alcohol (right lever). All of the subsequent sessions lasted 30 min, and two levers were available (left lever: water; right lever: alcohol) until stable levels of intake were reached. Upon completion of this procedure, the animals were allowed to self-administer a 10% (w/v) alcohol solution and water on an FR1 schedule of reinforcement (i.e., each operant response was reinforced with 0.1 ml of the solution).\nOnce a stable baseline of alcohol self-administration was reached, the rats were made dependent by chronic, intermittent exposure to alcohol vapors. […]\nData were analyzed by appropriate mixed factorial ANOVA, followed Newman Keuls post hoc tests"}, "Serotoninergic 5-HT2C": {"target": "Serotoninergic 5-HT2C (Homo sapiens, UniProt P28335)", "sequence (P28335 33-458)": "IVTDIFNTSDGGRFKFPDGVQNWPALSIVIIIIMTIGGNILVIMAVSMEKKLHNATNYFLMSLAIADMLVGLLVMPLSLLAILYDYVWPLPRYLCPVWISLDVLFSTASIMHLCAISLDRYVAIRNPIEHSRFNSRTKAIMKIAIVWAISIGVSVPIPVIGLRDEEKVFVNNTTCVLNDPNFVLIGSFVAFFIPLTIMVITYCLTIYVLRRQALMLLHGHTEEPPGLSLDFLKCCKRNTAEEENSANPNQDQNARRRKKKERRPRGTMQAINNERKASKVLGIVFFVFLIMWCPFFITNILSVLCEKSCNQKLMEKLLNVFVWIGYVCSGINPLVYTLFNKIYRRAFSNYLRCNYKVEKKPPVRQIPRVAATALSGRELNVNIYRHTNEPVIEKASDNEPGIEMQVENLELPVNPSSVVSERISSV", "test": "CNS receptor binding assay", "settings": "read-out: % Inhibition of control specific binding"}, "[3]": {"target": "Noradrenergic Transporter (Homo sapiens, UniProt P23975)", "sequence (P23975 whole entry)": "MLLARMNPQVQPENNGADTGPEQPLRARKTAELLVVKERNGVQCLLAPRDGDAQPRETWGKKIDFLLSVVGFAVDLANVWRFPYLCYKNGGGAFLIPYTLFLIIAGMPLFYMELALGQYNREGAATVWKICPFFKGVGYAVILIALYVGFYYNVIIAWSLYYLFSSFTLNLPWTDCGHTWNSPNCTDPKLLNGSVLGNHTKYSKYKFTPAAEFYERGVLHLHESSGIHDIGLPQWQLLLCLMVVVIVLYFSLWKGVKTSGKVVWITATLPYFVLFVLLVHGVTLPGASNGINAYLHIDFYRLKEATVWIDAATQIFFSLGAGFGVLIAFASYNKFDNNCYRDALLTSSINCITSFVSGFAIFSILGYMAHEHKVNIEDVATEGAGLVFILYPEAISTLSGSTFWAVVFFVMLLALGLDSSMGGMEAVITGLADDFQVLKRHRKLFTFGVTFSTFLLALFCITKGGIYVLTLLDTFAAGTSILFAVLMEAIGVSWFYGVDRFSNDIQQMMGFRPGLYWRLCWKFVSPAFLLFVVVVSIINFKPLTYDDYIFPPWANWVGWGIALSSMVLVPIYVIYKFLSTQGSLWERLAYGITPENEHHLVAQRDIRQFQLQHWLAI", "test": "CNS receptor binding assay", "settings": "[3H] nisoxetine, Human recombinant (CHO cells), read-out: % Inhibition of control specific binding"}}, "data": [{"molecule": "CO[C@H]1CC[C@@]2(C)C(=CC[C@H]3[C@@H]4CC[C@H](C(C)=O)[C@@]4(C)CC[C@@H]32)C1", "note": "[MAP4343, 3β-methoxy-pregna-5-ene-20-one]", "values": [{"measurement": "% Inhibition of control specific binding", "setting": "Noradrenergic α1", "result": 4, "unit": "%"}, {"measurement": "in vitro affinity for any tested receptor", "setting": "[1]", "result": "no significant affinity for any tested receptor"}, {"measurement": "inhibition at 10 µM", "setting": "Serotoninergic 5-HT2B", "result": -4, "unit": "%"}, {"measurement": "inhibition at 10 µM", "setting": "Oppioid δ2", "result": -3, "unit": "%"}, {"measurement": "inhibition at 10 µM", "setting": "Oppioid κ", "result": 19, "unit": "%"}, {"measurement": "inhibition at 10 µM", "setting": "Dopaminergic D4.4", "result": 6, "unit": "%"}, {"measurement": "inhibition at 10 µM", "setting": "Dopaminergic D2S", "result": 6, "unit": "%"}, {"measurement": "inhibition at 10 µM", "setting": "Serotoninergic 5-HT7", "result": -11, "unit": "%"}, {"measurement": "inhibition at 10 µM", "setting": "Dopaminergic D5", "result": -7, "unit": "%"}, {"measurement": "operant responding for alcohol (alcohol reinforced responses)", "setting": "[2]; dependent (vapor) rats, 10 mg/kg sub-cutaneously in sesame oil 24 hours before each test session, p<0.05 from test session 8", "result": "significantly reduce operant responding for alcohol selectively in the dependent animals"}, {"measurement": "time of treatment until efficacy was apparent", "setting": "[2]; dependent rats, 10 mg/kg sub-cutaneously", "result": "~10", "unit": "days"}, {"measurement": "reduction of excessive alcohol drinking", "setting": "[2]; non-dependent (air) rats, 10 mg/kg sub-cutaneously 24 hours before each test session", "result": "not in non-dependent rats"}, {"measurement": "inhibition at 10 µM", "setting": "Serotoninergic 5-HT2C", "result": 7, "unit": "%"}, {"measurement": "inhibition at 10 µM", "setting": "[3]", "result": 3, "unit": "%"}]}]}
